Each structure is given as a SMILES string. Values after ≈ are worked out from the molar mass of the structure shown. Active and inactive are the calls of the source. No cut-off for these calls is given here.

Data set [1] relates to T47D. Kind of data set: Induction of apoptosis in human T47D cells after 48 hrs. It counts as functional, cell-based.
The subject of data set [2] is HCT-116. Kind of data set: Induction of apoptosis in human HCT116 cells after 48 hrs. The data set is classed as functional, cell-based. Conditions: HCT-116, 48 h.
Data set [3] has as its system SNU-398. Kind of data set: Induction of apoptosis in human SNU398 cells after 48 hrs. It counts as functional, cell-based. Conditions: SNU-398, 48 h.
Data set [4] is described as follows: Solubility in buffer solution containing ethanol:Cremophor:D5W of 12.5:12.5:75. It counts as physicochemical.
The subject of data set [5] is HCT-116. Kind of data set: Cell cycle arrest in human HCT116 cells assessed as accumulation at G1 phase at 2 uM after 24 hrs by flow cytometry. It counts as functional. On the technique in general: Flow cytometry measures light scatter and fluorescence of single cells or particles in a stream.
Data set [6] relates to HCT-116. Kind of data set: Cell cycle arrest in human HCT116 cells assessed as accumulation at S phase at 2 uM after 24 hrs by flow cytometry. It counts as functional.
In data set [7] the test system is T47D. The data set can be described thus: Growth inhibition of human T47D cells after 48 hrs. It counts as functional.
Data set [8] deals with HCT-116. Kind of data set: Cell cycle arrest in human HCT116 cells assessed as accumulation at subG1 phase at 2 uM after 24 hrs by flow cytometry. The data set is classed as functional.
The test system of data set [9] is HCT-116. The data set can be described thus: Cell cycle arrest in human HCT116 cells assessed as accumulation at S phase at 2 uM after 48 hrs by flow cytometry. It counts as functional.
Data set [10] has as its system HCT-116. Kind of data set: Cell cycle arrest in human HCT116 cells assessed as accumulation at subG1 phase at 2 uM after 48 hrs by flow cytometry. The data set is classed as functional.
In data set [11] the test system is HCT-116. Kind of data set: Growth inhibition of human HCT116 cells after 48 hrs. It counts as functional. As to conditions: HCT-116, 48 h.
Data set [12] deals with SNU-398. The data set can be described thus: Growth inhibition of human SNU398 cells after 48 hrs. The data set is classed as functional. As to conditions: SNU-398, 48 h.
Data set [13] has as its system HCT-116. Kind of data set: Cell cycle arrest in human HCT116 cells assessed as accumulation at G2/M phase at 2 uM after 48 hrs by flow cytometry. It counts as functional.
A short description of data set [14]: Inhibition of tubulin polymerization by DAPI staining method.
Data set [15] has as its system HCT-116. The data set can be described thus: Cell cycle arrest in human HCT116 cells assessed as accumulation at G1 phase at 2 uM after 48 hrs by flow cytometry. The data set is classed as functional.
The subject of data set [16] is HCT-116. The data set can be described thus: Cell cycle arrest in human HCT116 cells assessed as accumulation at G2/M phase at 2 uM after 24 hrs by flow cytometry. It counts as functional.

With `COc1ccccc1CNC(=O)c1cccc2c1C(=O)c1ccccc1-2`, the EC50 in data set [1], in [2] and in [3] was greater than 10 µM each time.

Turning to `O=C(Nc1nccs1)c1cccc2c1C(=O)c1ccccc1-2`, the EC50 in data set [1], in [2] and in data set [3] was greater than 10 µM in each case.

Take `CN(C)c1ccccc1NC(=O)c1cccc2c1C(=O)c1ccccc1-2`: the EC50 (as a rule, the concentration that produces a half-maximal response) in data set [1] came to 0.98 µM; in data set [2] it was 1.2 µM; in data set [3] it was 0.83 µM. For the same molecule, in [4], the solubility (commonly the dissolved amount per volume that the medium holds) was determined as 6100 µg/mL (≈ 17.8 mM).

In the case of `N#Cc1ccccc1NC(=O)c1cccc2c1C(=O)c1ccccc1-2`, the EC50 in data set [1], in [2] and in data set [3] was greater than 10 µM in each case.

As for `O=C(Nc1ccccc1OCF)c1cccc2c1C(=O)c1ccccc1-2`, the EC50 in data set [1] turned out to be 0.48 µM; in [2], 2.3 µM; in [3], 1.5 µM.

As to `Cc1ccccc1C(=O)Nc1cccc2c1C(=O)c1ccccc1-2`, the EC50 in data set [1] is 2.1 µM; in data set [2], 2.2 µM; in data set [3], 1.3 µM.

For `CN1CCN(Cc2ccccc2NC(=O)c2cccc3c2C(=O)c2ccccc2-3)CC1`, the EC50 in data set [1], in data set [2] and in data set [3] was greater than 10 µM in each case.

For the molecule `Cc1ccccc1N(C)C(=O)c1cccc2c1C(=O)c1ccccc1-2`, the EC50 in [1], in data set [2] and in data set [3] was greater than 10 µM in each case.

For the molecule `Cc1ccc(NC(=O)c2cccc3c2C(=O)c2ccccc2-3)cc1`, the values for the concentration giving a half-maximal response (EC50) in [1], in data set [2] and in data set [3] were 4.6 µM, greater than 10 µM and greater than 10 µM, respectively.

As for `O=C(Nc1ccccc1N1CCCCC1)c1cccc2c1C(=O)c1ccccc1-2`, the EC50 in [1] came to 2.8 µM; in data set [2] it was 2.6 µM; in [3], 2.1 µM.

In the case of `Cc1ccccc1NC(=O)c1cccc2c1C(=O)c1ccccc1-2`, the Activity in data set [5] is 32%; in data set [6] it was 10%; in data set [8] it was 8%; in [9] it was 11%; in data set [10], 41%; in data set [13], 16%. For the same molecule, the Activity was found to be 29% in [15] and 48% in data set [16]. In addition, the GI50 (in general, the concentration at which growth is held to half of that of the control) was 0.18 µM in [7], 0.36 µM in [11] and 0.3 µM in data set [12]. The EC50 amounted to 0.98 µM in [1], 1.1 µM in data set [2] and 0.64 µM in data set [3]. In addition, the IC50 (as a rule, the concentration at which inhibition is half-maximal) in data set [14] is “Not Active”.

For `O=C(Nc1ccccc1F)c1cccc2c1C(=O)c1ccccc1-2`, the figures for the EC50 in [1], in data set [2] and in [3] were 1.8 µM, greater than 10 µM and greater than 10 µM, respectively.

With `O=C(Nc1ccccc1[N+](=O)[O-])c1cccc2c1C(=O)c1ccccc1-2`, the results for the EC50 in data set [1], in data set [2] and in data set [3] were 2.5 µM, 5.5 µM and 2.6 µM, respectively.

Turning to `COc1cc2c(c(OC)c1OC)-c1ccc(OC)c(=O)cc1[C@@H](NC(C)=O)CC2` [COLCHICINE], the IC50 in data set [14] (read-out: IC50) amounted to 0.5 µM.

Take `O=C(Nc1ccccc1-n1cccn1)c1cccc2c1C(=O)c1ccccc1-2`: the result in data set [5], in data set [6], in [8], in [9], in data set [10] and in data set [13] was Active. Moreover, the outcome in [15] and in data set [16] was Active. The figures for the GI50 in data set [7], in data set [11] and in data set [12] were 0.16 µM, 1.1 µM and 0.78 µM, respectively. The EC50 is 1.4 µM in data set [1], 1.3 µM in [2] and 1.1 µM in data set [3]. In data set [4], this molecule gave a solubility of 6100 µg/mL (≈ 16.7 mM). Moreover, the IC50 result in [14] was “Not Active”.

In the case of `CN(C(=O)c1cccc2c1C(=O)c1ccccc1-2)c1ccccc1-n1cccn1`, the EC50 in [1], in [2] and in [3] was greater than 10 µM each time.

As for `O=C(Nc1ccccc1-n1cccc1)c1cccc2c1C(=O)c1ccccc1-2`, the EC50 stood at 5.9 µM in [1], 6.3 µM in data set [2] and 5.5 µM in data set [3].

With `CN(C)Cc1ccccc1NC(=O)c1cccc2c1C(=O)c1ccccc1-2`, the half-maximal effective concentration (EC50) in data set [1] came out at 1.4 µM; in data set [2], 0.94 µM; in data set [3], 0.71 µM.

Turning to `CC[C@]1(O)C[C@@H]2CN(CCc3c([nH]c4ccccc34)[C@@](C(=O)OC)(c3cc4c(cc3OC)N(C)[C@H]3[C@@](O)(C(=O)OC)[C@H](OC(C)=O)[C@]5(CC)C=CCN6CC[C@]43[C@@H]65)C2)C1` [VINBLASTINE], in [14] (read-out: IC50), the IC50 came to 0.5 µM.

With `Cc1cccnc1NC(=O)c1cccc2c1C(=O)c1ccccc1-2`, the EC50 in data set [1], in data set [2] and in [3] was greater than 10 µM each time.

Take `O=C(NCc1ccccc1Cl)c1cccc2c1C(=O)c1ccccc1-2`: the 50% effective concentration (EC50) in data set [1], in data set [2] and in data set [3] was greater than 10 µM throughout.

On to `COc1ccccc1NC(=O)c1cccc2c1C(=O)c1ccccc1-2`, for which the figures for the EC50 in data set [1], in [2] and in data set [3] were 0.62 µM, 7.5 µM and 4.9 µM, respectively.

`O=C(Nc1ccccc1)c1cccc2c1C(=O)c1ccccc1-2`: the EC50 was 4.4 µM in data set [1], greater than 10 µM in data set [2] and greater than 10 µM in data set [3].

For `Cc1ccncc1NC(=O)c1cccc2c1C(=O)c1ccccc1-2`, the concentration for a half-maximal effect (EC50) in [1], in data set [2] and in data set [3] was greater than 10 µM in each case.

`O=C(Nc1ccccc1N1CCOCC1)c1cccc2c1C(=O)c1ccccc1-2`: the EC50 turned out to be 5.3 µM in data set [1], 5.2 µM in data set [2] and 3.9 µM in data set [3].

Turning to `Cc1cccc(NC(=O)c2cccc3c2C(=O)c2ccccc2-3)c1`, the EC50 in data set [1], in [2] and in data set [3] was greater than 10 µM throughout.

In the case of `CC1CCCCC1NC(=O)c1cccc2c1C(=O)c1ccccc1-2` (stereo not given), the EC50 in [1], in data set [2] and in [3] was greater than 10 µM each time.

As for `O=C(Nc1ccccc1CBr)c1cccc2c1C(=O)c1ccccc1-2`, the figures for the EC50 in [1], in [2] and in data set [3] were 4.7 µM, 10.7 µM and 7.2 µM, respectively.

Take `O=C(Nc1ccccn1)c1cccc2c1C(=O)c1ccccc1-2`: the EC50 in data set [1], in [2] and in [3] was greater than 10 µM throughout.

For the molecule `O=C(Nc1ccccc1-c1ccccc1)c1cccc2c1C(=O)c1ccccc1-2`, the GI50 in [7] was 0.21 µM; in data set [11], 0.58 µM; in [12], 0.35 µM. The figures for the EC50 in [1], in data set [2] and in data set [3] were 1.7 µM, 1.8 µM and 1.7 µM, respectively.

As to `O=C(Nc1ccccc1O)c1cccc2c1C(=O)c1ccccc1-2`, the EC50 in data set [1], in data set [2] and in data set [3] was greater than 10 µM each time.

For the molecule `O=C(Nc1cccnc1)c1cccc2c1C(=O)c1ccccc1-2`, the EC50 in data set [1], in data set [2] and in data set [3] was greater than 10 µM throughout.

On to `O=C(Nc1ccccc1-c1nnn[nH]1)c1cccc2c1C(=O)c1ccccc1-2`, for which the EC50 in data set [1], in [2] and in [3] was greater than 10 µM each time.

Consider `Cc1cccc(C)c1NC(=O)c1cccc2c1C(=O)c1ccccc1-2`, for which the EC50 in [1], in data set [2] and in data set [3] was greater than 10 µM throughout.

As for `O=C(Nc1ccccc1Cl)c1cccc2c1C(=O)c1ccccc1-2`, the results for the GI50 in data set [7], in data set [11] and in data set [12] were 0.23 µM, 0.54 µM and 0.53 µM, respectively. Further, the figures for the half-maximal effective concentration (EC50) in [1], in data set [2] and in data set [3] were 0.47 µM, 0.56 µM and 0.41 µM, respectively.

`O=C(Nc1ccccc1-n1ccnc1)c1cccc2c1C(=O)c1ccccc1-2`: the EC50 in [1], in [2] and in [3] was greater than 10 µM each time.

On to `[N-]=[N+]=Nc1ccccc1NC(=O)c1cccc2c1C(=O)c1ccccc1-2`, for which the concentration giving a half-maximal response (EC50) in data set [1] stood at 3.5 µM; in [2], 3.6 µM; in data set [3] it was 4.4 µM.

For the molecule `COC(=O)c1ccccc1NC(=O)c1cccc2c1C(=O)c1ccccc1-2`, the GI50 in data set [7] amounted to 0.18 µM; in data set [11], 0.48 µM; in data set [12], 0.31 µM. The EC50 in [1] came out at 2.4 µM; in [2] it was 0.52 µM; in data set [3], 0.34 µM.

Regarding `COc1ccc(NC(=O)c2cccc3c2C(=O)c2ccccc2-3)cc1`, the results for the EC50 in [1], in data set [2] and in [3] were 3.7 µM, greater than 10 µM and greater than 10 µM, respectively.

For `Nc1ccccc1NC(=O)c1cccc2c1C(=O)c1ccccc1-2`, the EC50 in [1], in data set [2] and in [3] was greater than 10 µM each time.

As for `O=C(Nc1ccccc1Br)c1cccc2c1C(=O)c1ccccc1-2`, the EC50 in [1] came out at 2.3 µM; in data set [2], 2.7 µM; in data set [3], 2.2 µM.

Turning to `CCOc1ccccc1NC(=O)c1cccc2c1C(=O)c1ccccc1-2`, the GI50 in [7] came out at 0.45 µM; in data set [11], 0.4 µM; in data set [12], 0.27 µM. Further, the 50% effective concentration (EC50) in [1] was 2.9 µM; in data set [2], 1.6 µM; in data set [3], 0.96 µM.

The record behind these values is ChEMBL document CHEMBL1136880, “Discovery of N-aryl-9-oxo-9H-fluorene-1-carboxamides as a new series of apoptosis inducers using a cell- and caspase-based high-throughput screening assay. 1. Structure-activity relationships of the carboxamide group” (Bioorg Med Chem Lett, 2009).
